From patent publication US8629132B2, “Kinase inhibitors” (Genosco, priority 2009, dated 2014)

What was measured:
SYK = target: T1, SYK (Homo sapiens, UniProt P43405); experiment: Kinase inhibition assay: SYK; format: biochemical; settings: at 1 μM concentration
T1 construct: Purified full-length human SYK, ZAP70, PIM1, PYK2; purchased Carna Biosciences
Experimental: (§1) Compounds of the present invention were tested for their capacity to inhibit a kinase panel which includes, but are not limited to, spleen tyrosine kinase (SYK), zeta-chain-associated protein kinase 70 (ZAP70), PTK2B protein tyrosine kinase 2 (PYK2), focal adhesion kinase (FAK), provirus integration of maloney kinase 1 (PIM1), rearranged during transfection kinase (RET), Fms-like tyrosine kinase 3 (FLT3), Janus kinase 2 (JAK2), and leucine-rich repeat kinase 2 (LRRK2).
(§2) Inhibition of SYK, ZAP70, PYK2, FAK, PIM1, RET, FLT3, JAK2 and LRRK2 Kinase Activity
(§3) Compounds of the invention were initially diluted to 10 mM in 100% DMSO (CALBIOCHEM™) for storage and made into kinase buffer solution to create a compound concentration ranging from 1 uM and 10 uM. Serial dilutions of compounds of the invention were dispensed into a 96-well plate (GREINER BIOSCIENCES™) at 6 μL each. Purified full-length human SYK, ZAP70, PIM1, PYK2 and truncated human FAK, RET, FLT3, JAK2, and LRRK2 (CARNA BIOSCIENCES™) were diluted in kinase buffer and added to the compound solutions and pre-incubated for 30 minutes at room temperature (1 hour for PYK2). […] The reaction mixture was incubated for 1 hour (2 hours for PYK2). Following the incubation, the stop solution made with EDTA, water, and Lance detection buffer ([…]™) was added (12μL each) to stop phosphorylation. […] The IC50 value of test compound was calculated at Gradpad Prism 5 unless specified otherwise.

ZAP70 = target: T2, ZAP70 (Homo sapiens, UniProt P43403); experiment: Kinase inhibition assay: ZAP70; format: biochemical; settings: at 1 μM concentration
T2 construct: Purified full-length human SYK, ZAP70, PIM1, PYK2; purchased Carna Biosciences
T2 sequence (P43403 1-619): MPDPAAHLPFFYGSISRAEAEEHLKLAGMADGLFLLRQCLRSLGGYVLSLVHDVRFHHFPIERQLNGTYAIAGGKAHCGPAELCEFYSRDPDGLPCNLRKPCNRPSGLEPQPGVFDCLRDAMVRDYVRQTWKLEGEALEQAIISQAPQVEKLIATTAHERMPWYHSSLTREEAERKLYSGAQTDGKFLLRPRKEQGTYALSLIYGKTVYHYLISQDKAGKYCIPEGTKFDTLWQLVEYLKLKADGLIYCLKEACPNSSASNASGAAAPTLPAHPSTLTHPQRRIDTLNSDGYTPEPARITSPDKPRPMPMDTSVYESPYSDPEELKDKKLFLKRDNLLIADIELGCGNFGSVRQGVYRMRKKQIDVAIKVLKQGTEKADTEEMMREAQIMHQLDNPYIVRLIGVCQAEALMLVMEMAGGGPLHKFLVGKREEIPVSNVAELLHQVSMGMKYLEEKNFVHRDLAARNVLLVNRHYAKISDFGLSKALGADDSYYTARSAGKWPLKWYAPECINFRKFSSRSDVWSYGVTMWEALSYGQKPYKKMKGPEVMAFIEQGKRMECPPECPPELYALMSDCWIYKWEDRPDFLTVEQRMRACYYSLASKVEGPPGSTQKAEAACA
Experimental: as §1, §2, §3

PYK2 = target: T3, PYK2 (Homo sapiens, UniProt Q14289); experiment: Kinase inhibition assay: PYK2; format: biochemical; settings: at 1 μM concentration
T3 construct: Purified full-length human SYK, ZAP70, PIM1, PYK2; purchased Carna Biosciences
Experimental: as §1, §2, §3

FAK = target: T4, FAK (Homo sapiens, UniProt Q05397); experiment: Kinase inhibition assay: FAK; format: biochemical; settings: at 1 μM concentration
T4 construct: truncated human FAK, RET, FLT3, JAK2, and LRRK2; purchased Carna Biosciences
Experimental: as §1, §2, §3

PIM1 = target: T5, PIM1 (Homo sapiens, UniProt P11309); experiment: Kinase inhibition assay: PIM1; format: biochemical; settings: at 1 μM concentration
T5 construct: Purified full-length human SYK, ZAP70, PIM1, PYK2; purchased Carna Biosciences
Experimental: as §1, §2
Compounds of the invention were initially diluted to 10 mM in 100% DMSO (CALBIOCHEM™) for storage and made into kinase buffer solution to create a compound concentration ranging from 1 uM and 10 uM. Serial dilutions of compounds of the invention were dispensed into a 96-well plate (GREINER BIOSCIENCES™) at 6 μL each. Purified full-length human SYK, ZAP70, PIM1, PYK2 and truncated human FAK, RET, FLT3, JAK2, and LRRK2 (CARNA BIOSCIENCES™) were diluted in kinase buffer and added to the compound solutions and pre-incubated for 30 minutes at room temperature (1 hour for PYK2). […] The reaction mixture was incubated for 1 hour (2 hours for PYK2). Following the incubation, the stop solution made with EDTA, water, and Lance detection buffer ([…]™) was added (12μL each) to stop phosphorylation. […] Substrate phosphorylation was a function of the 665 nm emission measured following the addition of the detection solution and 50 minutes of incubation. The IC50 value of test compound was calculated at Gradpad Prism 5 unless specified otherwise.

RET = target: T6, RET (Homo sapiens, UniProt P07949); experiment: Kinase inhibition assay: RET; format: biochemical
T6 construct: truncated human FAK, RET, FLT3, JAK2, and LRRK2; purchased Carna Biosciences
T6 sequence (P07949 658-1114 limits assumed): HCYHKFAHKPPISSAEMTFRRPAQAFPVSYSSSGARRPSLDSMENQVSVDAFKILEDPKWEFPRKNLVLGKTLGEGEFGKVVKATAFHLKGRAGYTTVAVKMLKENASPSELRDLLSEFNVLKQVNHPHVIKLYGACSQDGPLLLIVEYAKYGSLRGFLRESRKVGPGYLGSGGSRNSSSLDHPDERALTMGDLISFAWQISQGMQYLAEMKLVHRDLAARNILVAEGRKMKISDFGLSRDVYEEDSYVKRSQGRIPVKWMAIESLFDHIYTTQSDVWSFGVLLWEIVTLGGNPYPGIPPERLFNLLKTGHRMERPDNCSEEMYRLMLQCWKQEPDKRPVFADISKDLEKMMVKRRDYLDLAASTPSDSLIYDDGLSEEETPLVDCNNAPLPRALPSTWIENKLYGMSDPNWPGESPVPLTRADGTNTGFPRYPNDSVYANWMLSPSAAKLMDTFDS
Experimental: as §1, §2, §3

FLT3 = target: T7, FLT3 (Homo sapiens, UniProt P36888); experiment: Kinase inhibition assay: FLT3; format: biochemical
T7 construct: truncated human FAK, RET, FLT3, JAK2, and LRRK2; purchased Carna Biosciences
T7 sequence (P36888 564-993 limits assumed): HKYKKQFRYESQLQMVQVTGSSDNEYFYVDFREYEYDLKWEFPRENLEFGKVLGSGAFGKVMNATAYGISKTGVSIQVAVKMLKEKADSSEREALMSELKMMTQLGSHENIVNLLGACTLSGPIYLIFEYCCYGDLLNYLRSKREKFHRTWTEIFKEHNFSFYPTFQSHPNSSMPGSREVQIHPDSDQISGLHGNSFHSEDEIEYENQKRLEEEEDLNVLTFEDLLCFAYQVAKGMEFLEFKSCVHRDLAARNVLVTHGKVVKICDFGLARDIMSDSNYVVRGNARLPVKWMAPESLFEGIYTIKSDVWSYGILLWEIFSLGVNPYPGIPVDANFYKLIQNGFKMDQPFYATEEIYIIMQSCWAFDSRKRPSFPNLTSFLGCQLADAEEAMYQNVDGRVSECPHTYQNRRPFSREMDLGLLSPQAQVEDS
Experimental: as §1, §2, §3

MTC-TT = experiment: Cell viability assay: RET inhibition; format: cell-based, human; settings: for IC50: Homo sapiens, 48 h, two days after drug treatment; for inhibition level compared with Vandetinib and Sunitinib: RET induced cancer cell line (MTC-TT)
Experimental: To address RET dependent cell viability, the medullary thyroid carcinoma cell line, MTC-TT representing MEN2A was utilized to test compounds of the present invention. MTC-TT were cultured at RPMI containing 15 bovine calf serum (Hyclon™ of Thermo™) and supplemented with 2 mM L-Glutamine The cells were grown at a density of 5×10^4 cells/100 μL/well in duplicate in 96-well plates for one day and treated with different concentrations of test compound. Cell viability for MTC-TT two days after drug treatment was measured by Cell Titer 96 Aqueous One Solution Reagent (Promega™) according to the manufacture instructions.

JAK2 = JAK2 (Homo sapiens, UniProt O60674); experiment: Kinase inhibition assay: JAK2; format: biochemical; parameters: truncated human FAK, RET, FLT3, JAK2, and LRRK2; purchased Carna Biosciences
Experimental: as §1, §2, §3

LRRK2 = target: T8, LRRK2 (Homo sapiens, UniProt Q5S007); experiment: Kinase inhibition assay: LRRK2; format: biochemical
T8 construct: truncated human FAK, RET, FLT3, JAK2, and LRRK2; purchased Carna Biosciences
Experimental: as §1, §2, §3

T4 sequence (Q05397 376-1052 limits assumed): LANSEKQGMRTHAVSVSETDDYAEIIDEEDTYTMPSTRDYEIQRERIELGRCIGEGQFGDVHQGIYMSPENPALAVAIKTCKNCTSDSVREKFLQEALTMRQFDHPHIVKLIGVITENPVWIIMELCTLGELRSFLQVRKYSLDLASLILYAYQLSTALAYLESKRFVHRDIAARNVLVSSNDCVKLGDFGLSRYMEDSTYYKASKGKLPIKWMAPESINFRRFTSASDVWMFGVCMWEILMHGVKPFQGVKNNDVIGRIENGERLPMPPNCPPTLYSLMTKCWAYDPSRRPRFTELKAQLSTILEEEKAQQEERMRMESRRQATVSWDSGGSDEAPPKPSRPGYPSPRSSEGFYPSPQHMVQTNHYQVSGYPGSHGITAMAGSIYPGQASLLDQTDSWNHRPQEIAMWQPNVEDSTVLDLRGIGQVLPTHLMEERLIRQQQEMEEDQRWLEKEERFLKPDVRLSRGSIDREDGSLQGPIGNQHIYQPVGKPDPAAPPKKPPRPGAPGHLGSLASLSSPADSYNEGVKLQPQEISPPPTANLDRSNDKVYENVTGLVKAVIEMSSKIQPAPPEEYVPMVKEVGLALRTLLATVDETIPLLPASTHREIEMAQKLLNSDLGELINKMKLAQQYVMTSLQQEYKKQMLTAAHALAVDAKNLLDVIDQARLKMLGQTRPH
T3 sequence (Q14289 whole entry): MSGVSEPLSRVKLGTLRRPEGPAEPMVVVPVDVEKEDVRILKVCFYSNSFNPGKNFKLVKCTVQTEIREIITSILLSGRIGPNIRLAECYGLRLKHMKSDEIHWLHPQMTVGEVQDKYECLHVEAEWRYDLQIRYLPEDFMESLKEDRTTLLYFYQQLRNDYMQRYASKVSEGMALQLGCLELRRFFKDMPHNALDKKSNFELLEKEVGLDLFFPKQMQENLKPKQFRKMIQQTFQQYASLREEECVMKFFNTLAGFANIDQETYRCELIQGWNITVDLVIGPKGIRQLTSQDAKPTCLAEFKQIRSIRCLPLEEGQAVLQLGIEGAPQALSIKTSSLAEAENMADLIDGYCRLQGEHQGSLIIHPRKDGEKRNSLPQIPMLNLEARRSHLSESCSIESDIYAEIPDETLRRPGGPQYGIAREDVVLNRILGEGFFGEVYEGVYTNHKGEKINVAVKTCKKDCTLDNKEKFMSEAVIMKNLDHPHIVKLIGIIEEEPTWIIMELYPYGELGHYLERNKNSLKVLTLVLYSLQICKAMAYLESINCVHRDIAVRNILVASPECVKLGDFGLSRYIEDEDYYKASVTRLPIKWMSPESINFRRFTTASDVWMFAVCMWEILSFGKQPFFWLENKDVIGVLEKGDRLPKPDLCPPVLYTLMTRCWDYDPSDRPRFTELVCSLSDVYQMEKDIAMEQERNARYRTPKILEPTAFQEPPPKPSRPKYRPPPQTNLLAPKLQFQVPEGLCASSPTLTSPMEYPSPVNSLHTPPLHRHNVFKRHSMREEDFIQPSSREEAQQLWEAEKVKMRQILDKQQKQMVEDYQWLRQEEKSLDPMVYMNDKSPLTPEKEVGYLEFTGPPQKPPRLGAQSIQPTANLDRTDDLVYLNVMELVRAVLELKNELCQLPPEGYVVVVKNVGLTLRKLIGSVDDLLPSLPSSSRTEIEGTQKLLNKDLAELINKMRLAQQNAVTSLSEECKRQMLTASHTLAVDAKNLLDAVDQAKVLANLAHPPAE
T5 sequence (P11309 whole entry): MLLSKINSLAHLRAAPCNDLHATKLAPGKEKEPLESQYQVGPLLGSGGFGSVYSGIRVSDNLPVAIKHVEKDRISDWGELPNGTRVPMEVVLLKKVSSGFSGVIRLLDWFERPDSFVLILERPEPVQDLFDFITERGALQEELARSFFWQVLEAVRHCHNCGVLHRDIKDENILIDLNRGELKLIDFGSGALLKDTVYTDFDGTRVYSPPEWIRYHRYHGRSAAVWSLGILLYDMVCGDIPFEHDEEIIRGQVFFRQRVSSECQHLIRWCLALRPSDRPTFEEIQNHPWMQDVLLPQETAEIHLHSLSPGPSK
Sequence of JAK2 (O60674 826-1132 limits assumed): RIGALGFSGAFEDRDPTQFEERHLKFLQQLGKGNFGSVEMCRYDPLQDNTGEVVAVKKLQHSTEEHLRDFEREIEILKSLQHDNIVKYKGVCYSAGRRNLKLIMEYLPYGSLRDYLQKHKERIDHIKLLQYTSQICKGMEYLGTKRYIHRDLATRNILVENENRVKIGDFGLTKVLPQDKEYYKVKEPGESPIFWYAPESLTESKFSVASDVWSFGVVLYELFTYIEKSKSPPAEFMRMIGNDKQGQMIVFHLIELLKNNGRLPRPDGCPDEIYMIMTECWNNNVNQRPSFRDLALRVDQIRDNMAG
T8 sequence (Q5S007 970-2527 limits assumed): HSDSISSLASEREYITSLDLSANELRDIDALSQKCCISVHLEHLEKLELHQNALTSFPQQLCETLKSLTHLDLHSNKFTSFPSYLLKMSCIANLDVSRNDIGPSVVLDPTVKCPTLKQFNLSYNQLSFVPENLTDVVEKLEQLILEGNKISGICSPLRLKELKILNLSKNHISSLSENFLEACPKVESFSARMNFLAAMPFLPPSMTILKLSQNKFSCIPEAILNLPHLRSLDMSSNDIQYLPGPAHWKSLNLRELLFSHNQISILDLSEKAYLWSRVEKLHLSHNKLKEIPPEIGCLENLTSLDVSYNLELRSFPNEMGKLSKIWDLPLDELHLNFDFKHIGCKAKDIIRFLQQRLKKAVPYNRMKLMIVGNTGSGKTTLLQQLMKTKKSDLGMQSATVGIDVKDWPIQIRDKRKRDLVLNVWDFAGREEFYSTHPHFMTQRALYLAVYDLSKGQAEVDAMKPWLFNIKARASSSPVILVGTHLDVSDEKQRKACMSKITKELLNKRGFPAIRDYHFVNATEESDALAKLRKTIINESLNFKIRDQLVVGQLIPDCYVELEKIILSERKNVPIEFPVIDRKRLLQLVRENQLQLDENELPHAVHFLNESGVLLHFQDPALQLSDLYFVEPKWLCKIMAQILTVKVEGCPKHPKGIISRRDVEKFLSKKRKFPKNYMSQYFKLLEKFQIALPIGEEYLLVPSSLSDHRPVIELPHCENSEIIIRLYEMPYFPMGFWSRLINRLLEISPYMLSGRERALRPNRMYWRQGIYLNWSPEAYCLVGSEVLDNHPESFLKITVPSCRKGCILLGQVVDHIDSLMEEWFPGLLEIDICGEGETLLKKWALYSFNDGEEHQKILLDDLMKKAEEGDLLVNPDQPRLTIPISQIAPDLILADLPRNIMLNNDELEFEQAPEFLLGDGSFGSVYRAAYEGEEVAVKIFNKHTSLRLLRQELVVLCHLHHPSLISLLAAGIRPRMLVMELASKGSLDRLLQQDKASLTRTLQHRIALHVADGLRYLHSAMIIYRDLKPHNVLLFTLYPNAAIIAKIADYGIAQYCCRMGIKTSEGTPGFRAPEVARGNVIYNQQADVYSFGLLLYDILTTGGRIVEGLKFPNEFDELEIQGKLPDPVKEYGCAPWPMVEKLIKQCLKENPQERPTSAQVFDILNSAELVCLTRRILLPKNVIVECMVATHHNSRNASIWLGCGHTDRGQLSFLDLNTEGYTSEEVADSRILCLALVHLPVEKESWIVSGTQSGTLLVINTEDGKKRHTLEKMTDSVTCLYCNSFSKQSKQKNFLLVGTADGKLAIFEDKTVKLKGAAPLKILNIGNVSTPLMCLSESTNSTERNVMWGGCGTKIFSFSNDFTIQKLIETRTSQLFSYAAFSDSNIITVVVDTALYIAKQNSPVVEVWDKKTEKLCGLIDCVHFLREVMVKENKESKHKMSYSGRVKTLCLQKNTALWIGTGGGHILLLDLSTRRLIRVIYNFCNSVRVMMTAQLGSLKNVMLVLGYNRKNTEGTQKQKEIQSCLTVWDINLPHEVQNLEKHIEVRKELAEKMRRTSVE

Row | inhibition at 1 µM (SYK) | inhibition at 1 µM (ZAP70) | inhibition at 1 µM (PYK2) | inhibition at 1 µM (FAK) | inhibition at 1 µM (PIM1) | IC50 (RET) | IC50 (FLT3) | IC50 (JAK2) | IC50 (LRRK2) | SMILES | IC50 (MTC-TT) | inhibition level compared with Vandetinib and Sunitinib (MTC-TT)
1 | 82.7% | 41.3% | 30.6% | 36.9% | 21.9% | – | – | – | – | Cc1cc(C)cc(Nc2ncc(F)c(-n3cc(C)c(CO)c3)n2)c1 [Compound 14, (1-(2-(3,5-dimethyl-phenylamino)-5-fluoro-pyrimidin-4-yl)-4-methyl-1H-pyrrol-3-yl)methanol] | – | –
2 | – | – | – | – | – | 2.3 nM | 1.7 nM | 2.5 nM | – | Cc1cn(-c2nc(Nc3cc(C)c(OCCO)c(C)c3)ncc2C)cc1CN(C)C [Compound 121, 2-(4-(4-(3-((dimethylamino)methyl)-4-methyl-1H-pyrrol-1-yl)-5-methylpyrimidin-2-ylamino)-2,6-dimethylphenoxy)ethanol] | 34.6 nM | greater than those exhibited by Vandetinib and Sunitinib
3 | – | – | – | – | – | 10.2 nM | 0.17 nM | 3.7 nM | 275 nM | COc1cc(Nc2ncc(C)c(-n3cc(C)c(CN4CCN(CCO)CC4)c3)n2)cc(OC)c1OC [Compound 40, 2-(4-((4-methyl-1-(5-methyl-2-(3,4,5-trimethoxyphenylamino)pyrimidin-4-yl)-1H-pyrrol-3-yl)methyl)piperazin-1-yl)ethanol] | 78.4 nM | greater than those exhibited by Vandetinib and Sunitinib
4 | 41.8% | 19.3% | 18% | 17.7% | 3.7% | – | – | – | – | Cc1cc(C)cc(Nc2ncc(F)c(-n3cc(C(=O)N4CC[C@@H](O)C4)c(C)n3)n2)c1 [Compound 38, (R)-(1-(2-(3,5-dimethylphenylamino)-5-fluoropyrimidin-4-yl)-3-methyl-1H-pyrazol-4-yl)(3-hydroxypyrrolidin-1-yl)methanone] | – | –
